These results are taken from patent publication US10869483B2, “Coniothyrium minitans for use against moss growth” (Bayer CropScience Aktiengesellschaft, priority 2015, dated 2020).

The subject of the assay is haircup moss growth. Nature of the assay: Drench test (greenhouse, moss growth on soil surface). Format: in vivo. To be noted: 6.25 kg/ha = 20 μL/mL, 20 mL drench onto soil, 19 weeks, 15° C., 0% = untreated control, 100% = no moss growth. Here is the method: The test was carried out under greenhouse conditions.
120 mL of a mixture of steamed field soil and sand (1:1) was filled into transparent cylindrical vessels 5.5 cm in size.
The test formulation, the product CONTANS®, comprising 1×10^9 spores of the strain Coniothyrium minitans CON/M/91-08, was dissolved in water and diluted with water to the desired concentrations. 20 mL of the made-up solutions were pipetted onto the soil in the vessels.
The vessels were covered with a transparent lid.
The vessels remained in the greenhouse for the next 19 weeks, at 15° C. and at natural light conditions. The lids were opened slightly after approximately 2 weeks, and the soil was watered every 3 weeks and kept moist.
The evaluation was effected by estimating, per vessel, the soil surface area which had in the meantime been covered by growth, predominantly haircup moss growth. 0% means an efficacy which corresponds to that of the untreated control, while an efficacy of 100% means that no moss growth was discernible.

The compound `CCCCCCCCCC[N+](C)(C)CCCCCCCCCC.[Cl-]` [DDAC-C10, Didecyldimethylammonium chloride with alkyl chain length C10] returned an Efficacy % of 100%.
